Laboratory results as given in the NIST ThermoML archive (doi:10.1016/j.tca.2007.02.022).
Where “and” joins values, the source holds several entries; their conditions need not be identical. Equal values may be shown once. ± gives the expanded uncertainty stated by the source.

What was measured:
[1] = Molar enthalpy of transition or fusion; settings: Crystal
[2] = molar heat capacity at constant pressure; settings: 101.33 kPa, Crystal

OC[C@@H](O)[C@H](O)[C@@H](O)CO [xylitol]
Settings | Molar enthalpy of transition or fusion
[1] | 8.05 kcal/mol and 7.95 kcal/mol

[2]
Settings | molar heat capacity at constant pressure [J/K/mol]
80 K | 63.67 ± 1.7
80.07 K | 62.71 ± 1.6
83.61 K | 65.01 ± 1.7
85 K | 66.43 ± 1.7
86.53 K | 67.25 ± 1.8
89.49 K | 69.29 ± 1.8
90 K | 69.62 ± 2.7
92.49 K | 71.54 ± 2.7
95 K | 73.13 ± 2.7
95.54 K | 73.71 ± 2.7
98.51 K | 75.94 ± 2.8
100 K | 76.86 ± 2.8
101.4 K | 78.2 ± 2.8
104.34 K | 80.53 ± 2.8
105 K | 80.73 ± 2.8
107.35 K | 82.78 ± 2.8
110 K | 84.68 ± 2.9
110.28 K | 84.97 ± 2.9
113.27 K | 87.33 ± 2.9
115 K | 88.65 ± 2.9
116.32 K | 89.39 ± 2.9
119.31 K | 91.73 ± 2.9
120 K | 92.61 ± 2.9
122.25 K | 93.79 ± 2.9
125 K | 96.54 ± 3
125.24 K | 96.15 ± 3
128.3 K | 98.38 ± 3
130 K | 100.4 ± 3
131.31 K | 100.5 ± 3
134.27 K | 102.7 ± 3
135 K | 104.2 ± 3
137.29 K | 104.8 ± 3
140 K | 108 ± 3.1
140.38 K | 106.6 ± 3.1
143.41 K | 109 ± 3.1
145 K | 111.7 ± 3.1
146.39 K | 111.2 ± 3.1
149.42 K | 113.3 ± 3.1
150 K | 115.3 ± 3.2
152.51 K | 115.5 ± 3.2
155 K | 118.9 ± 3.2
155.56 K | 117.7 ± 3.2
158.57 K | 119.8 ± 3.2
160 K | 122.4 ± 3.2
161.56 K | 121.9 ± 3.2
164.6 K | 123.9 ± 3.2
165 K | 126 ± 3.3
167.69 K | 126 ± 3.3
170 K | 129.5 ± 3.3
170.76 K | 129.7 ± 3.3
173.84 K | 132.3 ± 3.3
175 K | 133 ± 3.3
176.88 K | 134 ± 3.3
179.99 K | 136 ± 3.4
180 K | 136.6 ± 3.4
183.16 K | 138 ± 3.4
185 K | 140.1 ± 3.4
186.3 K | 140.4 ± 3.4
190 K | 143.7 ± 3.4
192.5 K | 144.2 ± 3.4
195 K | 147.3 ± 3.5
195.64 K | 146.3 ± 3.5
198.85 K | 148.5 ± 3.5
200 K | 151 ± 3.5
202.03 K | 150.3 ± 3.5
205 K | 154.7 ± 3.5
205.18 K | 152.4 ± 3.5
208.33 K | 155.1 ± 3.6
210 K | 158.4 ± 3.6
211.45 K | 157.1 ± 3.6
214.63 K | 159.5 ± 3.6
215 K | 162.1 ± 3.6
217.88 K | 161.4 ± 3.6
220 K | 165.9 ± 3.7
221.1 K | 163.8 ± 3.6
224.3 K | 165.8 ± 3.7
